Laboratory results as given in publication PMC7986777 (Chemistry (Weinheim an Der Bergstrasse, Germany), 2021).

Tests used:
Assay in all cases: fluorescent cephalosporin
Format in all cases: biochemical
NDM-1 = NDM-1 (Klebsiella pneumoniae, UniProt C7C422)
VIM-2 = VIM-2 (Pseudomonas aeruginosa, UniProt Q9K2N0); conditions: read-out: VIM-2 IC50; […] min pre-incubation, FC5 substrate, HEPES
IMP-28 = IMP-28 (Klebsiella oxytoca, UniProt G4WB26); conditions: read-out: IMP-28 IC50; […] min pre-incubation, FC5 substrate, HEPES
Chain of IMP-28 (G4WB26 20-246): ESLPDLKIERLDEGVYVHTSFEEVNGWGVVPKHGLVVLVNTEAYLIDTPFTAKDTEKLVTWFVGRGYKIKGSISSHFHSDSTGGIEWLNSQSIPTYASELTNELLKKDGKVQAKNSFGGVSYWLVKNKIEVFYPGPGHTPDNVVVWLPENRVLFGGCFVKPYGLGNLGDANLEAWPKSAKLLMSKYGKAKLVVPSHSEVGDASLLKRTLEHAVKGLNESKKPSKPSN

Chain of NDM-1 (C7C422 29-270, looked up): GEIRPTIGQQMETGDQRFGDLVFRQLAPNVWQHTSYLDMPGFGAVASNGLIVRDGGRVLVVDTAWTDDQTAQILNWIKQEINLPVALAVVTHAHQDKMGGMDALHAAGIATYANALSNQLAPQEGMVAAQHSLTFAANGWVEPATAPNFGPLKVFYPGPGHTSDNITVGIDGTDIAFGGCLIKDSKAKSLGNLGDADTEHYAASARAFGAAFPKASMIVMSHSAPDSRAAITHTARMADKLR

| SMILES | IC50 (NDM-1) | IC50 (VIM-2) | IC50 (IMP-28) |
| --- | --- | --- | --- |
| Sc1cccc2cccnc12 [8-TQ] | 2.99 ± 0.58 µM | 4.2 ± 1 µM | 4.2 ± 0.11 µM |
| O=C(O)c1cccc(C(=O)O)n1 [DPA] | – | 4.34 ± 0.67 µM | 9.65 ± 0.62 µM |
| O=C(Cc1ccccc1)N[C@@H]1C(=O)N2C(C(=O)O)=C(COC(=O)c3cccc(C(=O)O)n3)CS[C@H]12 [compound 13] | 2.13 ± 0.07 µM | 1.87 ± 0.1 µM | 7.39 ± 0.1 µM |
| O=C(Cc1ccccc1)N[C@@H]1C(=O)N2C(C(=O)O)=C(COC(=O)c3cccc(C(=O)O)n3)C[S+]([O-])[C@H]12 (stereo partly shown) [compound 14] | 0.299 ± 0.005 µM | 0.756 ± 0.056 µM | 46.7 ± 2.76 µM |
| O=C(Cc1ccccc1)N[C@@H]1C(=O)N2C(C(=O)O)=C(COC(=O)c3cccc(C(=O)O)n3)CS(=O)(=O)[C@H]12 [compound 15] | 18.8 ± 1.22 µM | 10.8 ± 0.6 µM | 61.9 ± 1.82 µM |

Further lines, results first:

| IC50 (NDM-1) | IC50 (VIM-2) | IC50 (IMP-28) | SMILES |
| --- | --- | --- | --- |
| – | 3.64 ± 0.27 µM | 10.3 ± 0.22 µM | O=C(Cc1ccccc1)N[C@@H]1C(=O)N2C(C(=O)O)=C(CSc3cccc4cccnc34)CS[C@H]12 [compound 6] |
| 2.18 ± 0.14 µM | 6.35 ± 0.56 µM | 71.9 ± 3.05 µM | O=C(Cc1ccccc1)N[C@@H]1C(=O)N2C(C(=O)O)=C(CSc3cccc4cccnc34)C[S+]([O-])[C@H]12 (stereo partly shown) [compound 7] |
| 8.47 ± 1.02 µM | 4.17 ± 0.65 µM | 46.2 ± 3.13 µM | O=C(Cc1ccccc1)N[C@@H]1C(=O)N2C(C(=O)O)=C(CSc3cccc4cccnc34)CS(=O)(=O)[C@H]12 [compound 8] |
